Where two headings read alike, the source gives them in different places. Blank lines part the entries; values can stand above or below the compound they belong to.
Tests used:
Assay type in all cases: cell-based
[1] = test system: Staphylococcus aureus ATCC 33591; test: MIC by micro-broth dilution, S. aureus ATCC 33591
[2] = test system: Staphylococcus aureus ATCC 700699; test: MIC by micro-broth dilution, S. aureus ATCC 700699
human cancer cells = test: Viability of human cancer cells at 72 hours post-treatment; conditions: relative to the potency of ONC201; viability of human cancer cells at 72 hours post-treatment
[3] = test system: NCI60 cancer cell line panel; test: NCI60 cancer cell line panel; conditions: NCI60 panel (FIG. 16)
[4] = test system: Staphylococcus aureus ATCC 29213; test: MIC by micro-broth dilution, S. aureus ATCC 29213; conditions: ATCC 29213; 24 hours

- MIC ([1]; ATCC33591, Staphylococcus aureus (ATCC 33591), methicillin resistant, read-out: MIC): > 100 µg/mL
- MIC90 ([1]; Staphylococcus aureus, ATCC33591, ATCC 33591, 24 hours, read-out: MIC90): > 100 µg/mL
- MIC ([1]; Staphylococcus aureus, ATCC33591, ATCC 33591, 24 hours, read-out: MIC95): > 100 µg/mL
- MIC99 ([1]; Staphylococcus aureus, ATCC33591, ATCC 33591, 24 hours, read-out: MIC99): > 100 µg/mL
- MIC ([1]; Staphylococcus aureus, ATCC33591, ATCC 33591, 24 hours, read-out: MIC, Visual): > 100 µg/mL
- MIC ([2]; ATCC700699, MDR Staphylococcus aureus (ATCC 700699), read-out: MIC): > 100 µg/mL
- MIC90 ([2]; Staphylococcus aureus, ATCC700699, ATCC 700699 (48 hours), read-out: MIC90): > 100 µg/mL
- MIC ([2]; Staphylococcus aureus, ATCC700699, ATCC 700699 (48 hours), read-out: MIC95): > 100 µg/mL
- MIC99 ([2]; Staphylococcus aureus, ATCC700699, ATCC 700699 (48 hours), read-out: MIC99): > 100 µg/mL
- MIC ([2]; Staphylococcus aureus, ATCC700699, ATCC 700699 (48 hours), read-out: MIC, Visual): > 100 µg/mL
Structure (SMILES): COc1cccc(OC)c1C(=O)N[C@@H]1C(=O)N2[C@@H]1SC(C)(C)[C@@H]2C(=O)O [Methicillin, reference compound]

Structure (SMILES): O=C1C2=C(CCN(Cc3ccccc3)C2)N2CCN=C2N1Cc1cccs1 [ONC203]
- Relative Potency* (human cancer cells): C (C Indicates a potency decrease of >2-fold of ONC201)
- anti-cancer efficacy across tumor types [3]: inactive negative control

Structure (SMILES): O=C1C2=C(CCN(Cc3ccccc3)C2)N2CCN=C2N1CCc1ccccc1 [ONC204]
- Relative Potency* (human cancer cells): C (C Indicates a potency decrease of >2-fold of ONC201)

Structure (SMILES): O=C1C2=C(CCN(Cc3ccccc3)C2)N2CCN=C2N1CCN1CCN(Cc2ccccc2)CC1 [ONC205]
- Relative Potency* (human cancer cells): C (C Indicates a potency decrease of >2-fold of ONC201)

Structure (SMILES): Cc1ccccc1CN1C(=O)C2=C(CCNC2)N2CCN=C12 [ONC207]
- Relative Potency* (human cancer cells): B (B Indicates potency that is within 2-fold of ONC201)
- MIC95 [4]: >100 µg/mL
- MIC99 [4]: >100 µg/mL
- MIC, Visual [4]: >100 µg/mL
- MIC90 ([1]; ATCC 33591, 24 hours): >100 µg/mL
- MIC95 ([1]; ATCC 33591, 24 hours): >100 µg/mL
- MIC99 ([1]; ATCC 33591, 24 hours): >100 µg/mL
- MIC, Visual ([1]; ATCC 33591, 24 hours): >100 µg/mL
- MIC90 ([2]; ATCC 700699 (48 hours)): >100 µg/mL
- MIC95 ([2]; ATCC 700699 (48 hours)): >100 µg/mL
- MIC99 ([2]; ATCC 700699 (48 hours)): >100 µg/mL
- MIC, Visual ([2]; ATCC 700699 (48 hours)): >100 µg/mL

Structure (SMILES): Cc1ccccc1CN1C(=O)C2=C(CCN(C)C2)N2CCN=C12 [ONC208]
- Relative Potency* (human cancer cells): B (B Indicates potency that is within 2-fold of ONC201)

Structure (SMILES): Cc1ccccc1CN1C(=O)C2=C(CCN(CCc3ccccc3)C2)N2CCN=C12 [ONC209]
- Relative Potency* (human cancer cells): B (B Indicates potency that is within 2-fold of ONC201)

Structure (SMILES): O=C1C2=C(CCN(Cc3ccccc3)C2)N2CCN=C2N1Cc1cc(F)cc(F)c1 [ONC210]
- Relative Potency* (human cancer cells): B (B Indicates potency that is within 2-fold of ONC201)

Structure (SMILES): O=C1C2=C(CCN(Cc3ccccc3)C2)N2CCN=C2N1Cc1ccc(Cl)c(Cl)c1 [ONC211]
- Relative Potency* (human cancer cells): B (B Indicates potency that is within 2-fold of ONC201)

Structure (SMILES): Cc1ccccc1CN1C(=O)C2=C(CCN(CCCN)C2)N2CCN=C12 [ONC216]
- Relative Potency* (human cancer cells): B (B Indicates potency that is within 2-fold of ONC201)

Structure (SMILES): O=C1C2=C(CCN(Cc3ccccc3)C2)N2CCN=C2N1Cc1ccccc1F [ONC217]
- Relative Potency* (human cancer cells): C (C Indicates a potency decrease of >2-fold of ONC201)

Structure (SMILES): Cc1cc(F)ccc1CN1C(=O)C2=C(CCN(Cc3ccccc3)C2)N2CCN=C12 [ONC218]
- Relative Potency* (human cancer cells): A (A Indicates a potency increase of >2-fold of ONC201)

Structure (SMILES): O=C1C2=C(CCN(Cc3ccccc3)C2)N2CCN=C2N1Cc1ccc(Cl)cc1Cl [ONC219]
- Relative Potency* (human cancer cells): A (A Indicates a potency increase of >2-fold of ONC201)

Structure (SMILES): COc1ccc(CN2C(=O)C3=C(CCN(Cc4ccccc4)C3)N3CCN=C23)cc1 [ONC220]
- Relative Potency* (human cancer cells): A (A Indicates a potency increase of >2-fold of ONC201)

Structure (SMILES): O=C1C2=C(CCNC2)N2CCN=C2N1Cc1ccc(C(F)(F)F)cc1 [ONC221]
- Relative Potency* (human cancer cells): A (A Indicates a potency increase of >2-fold of ONC201)

— patent US11116771B2, “G protein-coupled receptor (GPCR) modulation by imipridones” (Oncoceutics, Inc., priority 2016, dated 2021)
